Reference: ChEMBL document CHEMBL5465560, “Selectivity Literature for EUbOPEN Chemogenomic Library” (2024)
Each block holds one compound with its values, some of them ahead of it.

Tests used:
[1] = target: T1, Serine/threonine-protein kinase DCLK3 (Homo sapiens) (UniProt Q9C098); assay: Selectivity interaction (KinomeScan (DiscoverX)) EUB0001049a DCLK3; conditions: at 1 µM
T1 sequence (whole entry): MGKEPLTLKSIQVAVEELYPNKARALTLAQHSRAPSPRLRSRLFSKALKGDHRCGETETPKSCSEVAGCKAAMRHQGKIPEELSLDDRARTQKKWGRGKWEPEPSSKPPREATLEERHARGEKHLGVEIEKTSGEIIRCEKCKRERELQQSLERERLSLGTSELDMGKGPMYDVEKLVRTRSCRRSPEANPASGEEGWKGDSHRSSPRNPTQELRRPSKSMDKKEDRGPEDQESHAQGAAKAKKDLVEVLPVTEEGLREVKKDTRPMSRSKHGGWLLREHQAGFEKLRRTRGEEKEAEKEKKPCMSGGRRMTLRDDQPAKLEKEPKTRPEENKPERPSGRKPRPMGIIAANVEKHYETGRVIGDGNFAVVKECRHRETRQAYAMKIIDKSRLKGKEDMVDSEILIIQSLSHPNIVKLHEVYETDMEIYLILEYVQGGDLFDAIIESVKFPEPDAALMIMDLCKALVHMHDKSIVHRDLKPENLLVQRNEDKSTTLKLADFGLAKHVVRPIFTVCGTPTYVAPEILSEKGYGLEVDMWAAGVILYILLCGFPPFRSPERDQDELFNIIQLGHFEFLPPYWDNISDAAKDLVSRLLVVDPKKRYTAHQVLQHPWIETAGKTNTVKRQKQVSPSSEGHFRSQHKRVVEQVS

[2] = target: T2, Aurora kinase A (Homo sapiens) (UniProt O14965); assay: Selectivity interaction (ActivX KiNativ screen (kinase selectivity in THP-1 cell lysates)) EUB0000639a STK6; format: subcellular; conditions: lysate, at 5 µM
T2 sequence (whole entry): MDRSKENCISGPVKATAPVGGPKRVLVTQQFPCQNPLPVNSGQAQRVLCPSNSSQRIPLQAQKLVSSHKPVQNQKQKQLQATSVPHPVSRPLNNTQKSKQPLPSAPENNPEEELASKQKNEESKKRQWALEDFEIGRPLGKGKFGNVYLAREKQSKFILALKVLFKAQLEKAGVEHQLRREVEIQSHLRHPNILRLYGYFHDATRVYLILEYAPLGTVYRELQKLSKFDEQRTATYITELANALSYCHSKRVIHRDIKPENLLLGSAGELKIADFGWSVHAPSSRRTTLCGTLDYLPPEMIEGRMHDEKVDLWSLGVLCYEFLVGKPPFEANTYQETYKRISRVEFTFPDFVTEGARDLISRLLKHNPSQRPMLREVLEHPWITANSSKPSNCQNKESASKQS

[3] = target: RAF proto-oncogene serine/threonine-protein kinase (Homo sapiens) (UniProt P04049); assay: Selectivity interaction (Kinase panel (Invitrogen)) EUB0000639a RAF1; conditions: at 200 nM
[4] = target: Mitogen-activated protein kinase kinase kinase kinase 1 (Homo sapiens) (UniProt Q92918); assay: Selectivity interaction (LanthaScreen Eu Kinase Binding Assay) EUB0001632a MAP4K1; conditions: at 10 µM
[5] = target: Dual specificity mitogen-activated protein kinase kinase 1 (Homo sapiens, UniProt Q02750); assay: Selectivity interaction (Rxn Biology Kinase assay) EUB0001632a MAP2K1; conditions: at 10 µM
[6] = target: Serine/threonine-protein kinase SBK1 (Homo sapiens) (UniProt Q52WX2); assay: Selectivity interaction (KinomeScan (DiscoverX)) EUB0000092b SBK1; conditions: at 10 µM
[7] = target: T3, Interleukin-1 receptor-associated kinase 3 (Homo sapiens) (UniProt Q9Y616); assay: Selectivity interaction (KinomeScan (DiscoverX)) EUB0000092b IRAK3; conditions: at 10 µM
T3 sequence (whole entry): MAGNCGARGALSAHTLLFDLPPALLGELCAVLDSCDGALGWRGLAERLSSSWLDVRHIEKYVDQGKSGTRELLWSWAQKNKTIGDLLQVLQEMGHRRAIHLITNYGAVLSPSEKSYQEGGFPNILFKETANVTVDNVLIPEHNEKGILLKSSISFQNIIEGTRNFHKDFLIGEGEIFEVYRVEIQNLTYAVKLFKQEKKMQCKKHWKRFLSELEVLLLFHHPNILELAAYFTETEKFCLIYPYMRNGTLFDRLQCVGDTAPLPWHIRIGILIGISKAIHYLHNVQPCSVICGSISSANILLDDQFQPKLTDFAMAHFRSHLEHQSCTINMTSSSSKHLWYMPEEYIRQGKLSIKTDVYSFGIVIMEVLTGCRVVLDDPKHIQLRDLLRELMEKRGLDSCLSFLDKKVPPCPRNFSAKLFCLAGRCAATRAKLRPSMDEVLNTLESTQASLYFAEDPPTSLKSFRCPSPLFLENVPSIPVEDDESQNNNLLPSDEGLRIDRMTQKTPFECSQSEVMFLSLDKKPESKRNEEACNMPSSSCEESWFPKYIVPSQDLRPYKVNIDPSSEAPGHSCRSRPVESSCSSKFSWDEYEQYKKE

[8] = target: T4, Uncharacterized serine/threonine-protein kinase SBK3 (Homo sapiens) (UniProt P0C264); assay: Selectivity interaction (KinomeScan (DiscoverX)) EUB0000045b SBK3
T4 sequence (whole entry): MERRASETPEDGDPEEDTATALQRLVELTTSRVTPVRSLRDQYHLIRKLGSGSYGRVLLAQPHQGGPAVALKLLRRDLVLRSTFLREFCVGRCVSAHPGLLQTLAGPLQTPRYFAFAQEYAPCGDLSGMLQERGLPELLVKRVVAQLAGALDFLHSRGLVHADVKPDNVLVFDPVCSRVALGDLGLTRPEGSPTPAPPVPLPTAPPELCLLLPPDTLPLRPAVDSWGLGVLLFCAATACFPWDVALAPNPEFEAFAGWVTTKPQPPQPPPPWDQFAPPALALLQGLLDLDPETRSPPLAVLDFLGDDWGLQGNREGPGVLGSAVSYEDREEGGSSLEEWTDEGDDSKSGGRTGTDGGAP

[9] = target: Calcium/calmodulin-dependent protein kinase kinase 2 (Homo sapiens) (UniProt Q96RR4); assay: Selectivity interaction (KinomeScan (DiscoverX)) EUB0001619a CAMKK2; conditions: at 1 µM
[10] = target: Dual specificity tyrosine-phosphorylation-regulated kinase 1B (Homo sapiens, UniProt Q9Y463); assay: Selectivity interaction (KinomeScan (DiscoverX)) EUB0000618a DYRK1B; conditions: at 10 µM
Dual specificity tyrosine-phosphorylation-regulated kinase 1B, sequence (Q9Y463 whole entry, looked up): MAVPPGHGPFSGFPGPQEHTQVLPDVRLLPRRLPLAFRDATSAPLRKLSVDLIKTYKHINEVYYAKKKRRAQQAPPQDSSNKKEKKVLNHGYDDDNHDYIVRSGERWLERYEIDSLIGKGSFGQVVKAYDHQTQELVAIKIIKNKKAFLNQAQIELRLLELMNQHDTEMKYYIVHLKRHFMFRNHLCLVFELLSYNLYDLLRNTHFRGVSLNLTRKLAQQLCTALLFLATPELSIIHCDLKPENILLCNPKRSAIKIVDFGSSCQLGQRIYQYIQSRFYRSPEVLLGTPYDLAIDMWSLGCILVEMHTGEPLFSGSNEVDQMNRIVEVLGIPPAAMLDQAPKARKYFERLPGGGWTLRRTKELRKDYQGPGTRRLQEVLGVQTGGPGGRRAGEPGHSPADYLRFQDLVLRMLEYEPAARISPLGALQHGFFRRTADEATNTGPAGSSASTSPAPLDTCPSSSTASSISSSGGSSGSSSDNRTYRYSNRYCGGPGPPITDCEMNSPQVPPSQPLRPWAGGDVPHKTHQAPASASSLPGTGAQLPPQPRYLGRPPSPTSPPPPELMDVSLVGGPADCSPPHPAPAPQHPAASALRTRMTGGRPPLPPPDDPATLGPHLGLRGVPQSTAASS

Serine/threonine-protein kinase SBK1 (Homo sapiens), sequence (Q52WX2 whole entry): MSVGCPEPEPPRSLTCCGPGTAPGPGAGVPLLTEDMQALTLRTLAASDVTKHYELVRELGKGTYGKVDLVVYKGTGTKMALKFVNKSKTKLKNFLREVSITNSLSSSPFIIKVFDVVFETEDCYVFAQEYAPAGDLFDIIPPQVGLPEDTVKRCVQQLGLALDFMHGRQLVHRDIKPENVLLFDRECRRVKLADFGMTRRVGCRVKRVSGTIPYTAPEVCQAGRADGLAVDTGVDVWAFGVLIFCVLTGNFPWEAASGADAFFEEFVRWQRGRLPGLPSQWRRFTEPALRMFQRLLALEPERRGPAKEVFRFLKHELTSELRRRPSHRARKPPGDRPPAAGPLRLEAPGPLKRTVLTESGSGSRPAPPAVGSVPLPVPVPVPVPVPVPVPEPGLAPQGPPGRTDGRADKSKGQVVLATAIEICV
Calcium/calmodulin-dependent protein kinase kinase 2 (Homo sapiens), sequence (Q96RR4 2-588 limits assumed): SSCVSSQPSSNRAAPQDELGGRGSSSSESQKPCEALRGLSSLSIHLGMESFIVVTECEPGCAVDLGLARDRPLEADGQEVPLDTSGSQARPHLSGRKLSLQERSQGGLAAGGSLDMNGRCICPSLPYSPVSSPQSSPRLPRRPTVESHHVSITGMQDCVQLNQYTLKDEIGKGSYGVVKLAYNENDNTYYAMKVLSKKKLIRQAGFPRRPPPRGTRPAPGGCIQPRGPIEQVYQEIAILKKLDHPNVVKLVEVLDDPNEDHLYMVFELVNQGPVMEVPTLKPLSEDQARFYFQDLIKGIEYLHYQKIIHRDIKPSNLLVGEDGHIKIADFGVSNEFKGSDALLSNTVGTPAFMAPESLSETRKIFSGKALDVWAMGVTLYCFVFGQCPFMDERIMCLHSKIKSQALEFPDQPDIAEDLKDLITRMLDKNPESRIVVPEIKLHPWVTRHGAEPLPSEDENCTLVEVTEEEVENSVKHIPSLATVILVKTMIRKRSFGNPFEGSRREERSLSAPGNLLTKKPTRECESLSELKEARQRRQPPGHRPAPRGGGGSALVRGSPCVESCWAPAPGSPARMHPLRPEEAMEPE
Mitogen-activated protein kinase kinase kinase kinase 1 (Homo sapiens), sequence (Q92918 whole entry, looked up): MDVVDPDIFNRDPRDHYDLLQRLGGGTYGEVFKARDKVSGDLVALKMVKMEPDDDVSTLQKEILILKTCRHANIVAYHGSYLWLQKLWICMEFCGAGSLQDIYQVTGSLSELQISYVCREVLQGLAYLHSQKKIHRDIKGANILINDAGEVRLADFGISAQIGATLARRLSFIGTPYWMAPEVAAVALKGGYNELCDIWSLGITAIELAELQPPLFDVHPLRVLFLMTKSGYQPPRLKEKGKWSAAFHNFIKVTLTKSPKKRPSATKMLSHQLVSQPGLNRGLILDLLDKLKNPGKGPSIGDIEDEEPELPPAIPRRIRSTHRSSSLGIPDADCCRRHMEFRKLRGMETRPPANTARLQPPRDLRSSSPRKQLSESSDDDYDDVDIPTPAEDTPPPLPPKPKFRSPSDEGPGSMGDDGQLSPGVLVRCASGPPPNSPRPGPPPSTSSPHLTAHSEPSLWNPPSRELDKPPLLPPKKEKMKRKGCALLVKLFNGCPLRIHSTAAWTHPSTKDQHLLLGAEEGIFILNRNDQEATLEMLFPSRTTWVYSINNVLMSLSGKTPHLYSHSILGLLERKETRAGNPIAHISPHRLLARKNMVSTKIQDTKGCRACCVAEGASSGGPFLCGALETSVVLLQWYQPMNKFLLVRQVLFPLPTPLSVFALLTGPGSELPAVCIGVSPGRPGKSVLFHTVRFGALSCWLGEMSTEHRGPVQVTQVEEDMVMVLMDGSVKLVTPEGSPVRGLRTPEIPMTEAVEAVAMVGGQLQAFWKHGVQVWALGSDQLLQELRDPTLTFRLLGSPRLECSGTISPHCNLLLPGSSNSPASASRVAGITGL
Dual specificity mitogen-activated protein kinase kinase 1, sequence (Q02750 whole entry): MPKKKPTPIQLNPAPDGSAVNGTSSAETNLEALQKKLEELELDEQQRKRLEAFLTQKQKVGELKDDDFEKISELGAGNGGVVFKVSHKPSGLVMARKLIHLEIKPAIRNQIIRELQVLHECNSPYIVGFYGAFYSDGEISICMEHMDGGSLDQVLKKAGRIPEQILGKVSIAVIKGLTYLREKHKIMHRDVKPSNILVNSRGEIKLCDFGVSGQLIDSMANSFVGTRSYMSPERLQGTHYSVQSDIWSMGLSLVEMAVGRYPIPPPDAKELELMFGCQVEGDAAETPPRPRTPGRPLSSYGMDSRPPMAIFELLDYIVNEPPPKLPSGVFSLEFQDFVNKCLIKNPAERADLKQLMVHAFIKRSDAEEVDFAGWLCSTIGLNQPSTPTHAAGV
RAF proto-oncogene serine/threonine-protein kinase (Homo sapiens), sequence (P04049 whole entry): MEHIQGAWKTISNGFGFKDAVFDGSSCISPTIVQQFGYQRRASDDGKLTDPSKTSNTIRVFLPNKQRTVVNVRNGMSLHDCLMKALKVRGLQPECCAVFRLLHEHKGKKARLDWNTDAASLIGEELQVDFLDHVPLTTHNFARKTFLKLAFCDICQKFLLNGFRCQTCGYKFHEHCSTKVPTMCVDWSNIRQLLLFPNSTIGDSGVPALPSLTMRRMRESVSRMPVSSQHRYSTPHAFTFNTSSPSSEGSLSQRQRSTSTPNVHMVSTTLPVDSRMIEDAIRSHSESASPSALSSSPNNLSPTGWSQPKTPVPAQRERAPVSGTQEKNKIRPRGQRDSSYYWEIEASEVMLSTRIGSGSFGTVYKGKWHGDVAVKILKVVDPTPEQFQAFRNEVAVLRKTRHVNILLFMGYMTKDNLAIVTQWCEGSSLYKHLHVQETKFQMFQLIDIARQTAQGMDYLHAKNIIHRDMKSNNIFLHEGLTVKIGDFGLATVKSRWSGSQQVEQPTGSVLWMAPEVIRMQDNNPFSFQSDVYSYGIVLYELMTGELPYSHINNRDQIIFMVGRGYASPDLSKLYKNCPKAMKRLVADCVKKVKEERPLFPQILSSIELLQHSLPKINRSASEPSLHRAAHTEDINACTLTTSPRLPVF

Compound: COc1cc(Nc2nc(C)cc(-c3cnn4nc(OC)ccc34)n2)cc(C(F)(F)F)c1
- % of control [1]: 100%

- % of inhibition [2]: 64.4%
- % of inhibition [3]: 10.1%
Compound: CC[C@@H]1[C@H](F)C(=O)N[C@@H]1COc1nccc2cc(C(N)=O)c(OC)cc12 [ZIMLOVISERTIB]

- % of inhibition [4]: -18.9%
- % of inhibition [5]: 4.54%
Compound: Cn1cc(-n2cnc3c(NCc4nc5cc(Cl)c(Cl)cc5[nH]4)nc(N4CCOCC4)nc32)cn1

Compound: CCC(=O)N1CCN(c2ccc(-n3c(=O)ccc4cnc5ccc(-c6cnc7ccccc7c6)cc5c43)cc2C(F)(F)F)CC1
- % of control [6]: 88%
- % of control [7]: 27%

Compound: C=CC(=O)Nc1cc(-n2c(=O)ccc3cnc4ccc(-c5ccc(NS(C)(=O)=O)cc5)cc4c32)ccc1C
- % of control ([8]; at 1 µM): 100%
- % of control ([8]; at 10 µM): 100%

Compound: N#Cc1cccc(-c2c[nH]c3ncnc(N4CCOCC4)c23)c1
- % of control [9]: 78%

Compound: O[C@H]1CC[C@H](Nc2ncc3nc(Nc4c(F)cc(F)cc4F)n([C@H]4CCOC4)c3n2)CC1
- % of control [10]: 100%
